Measurements from patent publication US20210267983A1, “COMBINATIONS OF PPAR AGONISTS AND P38 KINASE INHIBITORS FOR PREVENTING OR TREATING FIBROTIC DISEASES” (KINARUS AG, priority 2018, published 2021).

What was measured:
[1] = cited from earlier work; for reduction of the rate of decline in lung function: patients with IPF; for adverse events / side effects: treatment of IPF
[2] = test system: cytokines and chemokines of the interleukin, TNF, C-C and C-X-C motif families; conditions: for adjusted significance (p) value, C-C Motif Chemokine Ligand 2 (Ccl2) / adjusted significance (p) value, C-C Motif Chemokine Ligand 3 (Ccl3) / adjusted significance (p) value, C-C Motif Chemokine Ligand 4 (Ccl4) / adjusted significance (p) value, C-C Motif Chemokine Ligand 7 (Ccl7) / adjusted significance (p) value, C-C Motif Chemokine Ligand 8 (Ccl8) / adjusted significance (p) value, C-C Motif Chemokine Ligand 12 (Ccl12) / adjusted significance (p) value, C-C Motif Chemokine Ligand 24 (Ccl24) / adjusted significance (p) value, C-X-C Motif Chemokine Ligand 3 (Cxcl3) / adjusted significance (p) value, C-X-C Motif Chemokine Ligand 5 (Cxcl5) / adjusted significance (p) value, C-X-C Motif Chemokine Ligand 10 (Cxcl10) / adjusted significance (p) value, Interleukin 6 (IL6) / adjusted significance (p) value, Interleukin 11 (IL11) / adjusted significance (p) value, Interleukin 12B (IL12b) / adjusted significance (p) value, Interleukin 18 Receptor 1 (IL18r1) / adjusted significance (p) value, TNF Receptor Superfamily Member 10b (Tnfrsf10b) / adjusted significance (p) value, TNF Receptor Superfamily Member 11b (Tnfrsf11b) / adjusted significance (p) value, TNF Superfamily Member 9 (Tnfsf9) / adjusted significance (p) value, TNF Superfamily Member 18 (Tnfsf18) / adjusted significance (p) value, Interleukin 36 Gamma (IL1f9) / adjusted significance (p) value, TNF Superfamily Member 15 (Tnfsf15): lung expression vs bleomycin alone group; for adjusted significance (p) value, C-C Motif Chemokine Ligand 2 (Ccl2) / adjusted significance (p) value, C-C Motif Chemokine Ligand 3 (Ccl3) / adjusted significance (p) value, C-C Motif Chemokine Ligand 4 (Ccl4) / adjusted significance (p) value, C-C Motif Chemokine Ligand 7 (Ccl7) / adjusted significance (p) value, C-C Motif Chemokine Ligand 8 (Ccl8) / adjusted significance (p) value, C-C Motif Chemokine Ligand 12 (Ccl12) / adjusted significance (p) value, C-C Motif Chemokine Ligand 24 (Ccl24) / adjusted significance (p) value, C-X-C Motif Chemokine Ligand 3 (Cxcl3) / adjusted significance (p) value, C-X-C Motif Chemokine Ligand 5 (Cxcl5) / adjusted significance (p) value, C-X-C Motif Chemokine Ligand 10 (Cxcl10) / adjusted significance (p) value, Interleukin 6 (IL6) / adjusted significance (p) value, Interleukin 11 (IL11) / adjusted significance (p) value, Interleukin 12B (IL12b) / adjusted significance (p) value, Interleukin 18 Receptor 1 (IL18r1) / adjusted significance (p) value, TNF Receptor Superfamily Member 10b (Tnfrsf10b) / adjusted significance (p) value, TNF Receptor Superfamily Member 11b (Tnfrsf11b) / adjusted significance (p) value, TNF Superfamily Member 9 (Tnfsf9) / adjusted significance (p) value, TNF Superfamily Member 18 (Tnfsf18): Direction: downregulated; for adjusted significance (p) value, Interleukin 36 Gamma (IL1f9) / adjusted significance (p) value, TNF Superfamily Member 15 (Tnfsf15): Direction: upregulated; for regulation of expression of members of the interleukin/interleukin receptor, TNF/TNF receptor, C-C and C-X-C motif chemokine families: lung, vs bleomycin alone disease group, significant = adjusted p value <0.10
Description: Global gene expression changes were determined by Illumina Next Generation RNA sequencing in lung samples from the animal study described in Example 1. RNA was extracted from the post caval lobe that had been snap frozen at the termination of the study. For this analysis, 8 samples from each of treatment groups 1-6 (total 48 samples) were analysed. Briefly, total RNA was extracted for next generation sequencing using standard methods, then Illumina TruSeq RNA libraries including poly(A) enrichment were prepared. Sequencing was performed on an Illumina NextSeq 500, v2, high output, 1×75 bp reads with 30 Mio packages. Demultiplexing and trimming of Illumina adaptor residuals was performed on the raw data. Mapping of data reads was made using the reference mouse genome mm10. For bioinformatics analysis, the average expression level and standard deviations were determined for each gene for the 8 replicates per treatment group. Pairwise comparisons between groups were then performed to identify differentially expressed genes. Absolute p-values and adjusted p-values, to correct for multiplicity of testing, were calculated for each pairwise analysis.

[3] = test system: bleomycin-induced pulmonary fibrosis; assay: 21-day model of bleomycin-induced pulmonary fibrosis in mice; format: in vivo; conditions: day 21, oral gavage QD, 25 mg/kg pioglitazone, 100 mg/kg pamapimod, alone or in combination, p<0.05, t test; for lung weights normalized to body weights: vs. group 2 (bleomycin + vehicle); for fibrosis, group mean fibrotic index (modified Ashcroft score): vs. group 2 (fibrotic index 4.8)
Description: Male C57BL/6 mice, six to seven weeks of age, were used for this study. Animals were weighed one day prior to study initiation and 60 animals were randomized into 6 groups (N=10/group) such that mean body weights were similar for the different groups. Food and water were provided ad libitum, with a 12-hour light/dark cycle.
Treatment in groups 2-6 was initiated one day prior to bleomycin administration and continued though to the study end on day 21. On day -1, animals were dosed via oral gavage with vehicle control (0.5% methylcellulose; group 1 and group 2), pioglitazone at 25 mg/kg/dose (group 3), pamapimod at 100 mg/kg/dose (group 4), pioglitazone at 25 mg/kg/dose and pamapimod at 100 mg/kg/dose (group 5), pirfenidone at 100mg/kg/dose (group 6) and continued for 21 days. Pioglitazone and pamapimod were dosed once daily (QD) and pirfenidone was dosed twice daily (BID). On day 0, all mice in groups 2-6 received a single instillation of bleomycin to induce pulmonary fibrosis. Animals in group 1 (dosed with vehicle from days-1 to 21) were not instilled with bleomycin, but instead received a single dose of saline, and were considered sham negative control mice. Final drug treatments were administered 2-4 hours prior to study termination on day 21.
Body weights, absolute lung weights, and lung weights normalized to body weights were measured for all mice on day 21 after bleomycin instillation, and were compared to bleomycin-instilled vehicle treated control mice. The post-caval lobes from the right lung were collected and snap frozen. The remaining lungs were fixed in 10% NBF and underwent histopathology analysis and evaluated for eseverity of fibrosis using a modified Ashcroft score.
Vehicle (0.5% methylcellulose) and compounds were prepared weekly and stored at room temperature in the dark. All mice were dosed starting on day-1 until study termination on day 21 with a volume of 200 μl of vehicle or test compounds QD by oral gavage or 100 μl of pirfenidone BID by oral gavage. For groups receiving both pirfenidone and test compounds, pirfenidone was dosed 100 μl BID and test compounds were delivered in a total volume of 100 μl QD. […]
The lung samples were processed and embedded with all lobes from each mouse in one paraffin block. […] A modified Ashcroft score (Hubner et al., 2008) was recorded for each field. The fibrotic index was calculated as the sum of the modified Ashcroft field scores divided by the number of fields examined. […]
Endpoint data on day 21 is shown as the average Ashcroft score per experimental group, with standard error of the mean (SEM). Statistical differences (defined as p<0.05) between groups were analyzed using t-tests in Prism version 7.0 software (GraphPad, La Jolla, Calif.). […]

Row | Structure (SMILES) | reduction of the rate of decline in lung function [1] | adverse events / side effects [1] | adjusted significance (p) value, C-C Motif Chemokine Ligand 2 (Ccl2) [2] | adjusted significance (p) value, C-C Motif Chemokine Ligand 3 (Ccl3) [2] | adjusted significance (p) value, C-C Motif Chemokine Ligand 4 (Ccl4) [2] | adjusted significance (p) value, C-C Motif Chemokine Ligand 7 (Ccl7) [2] | adjusted significance (p) value, C-C Motif Chemokine Ligand 8 (Ccl8) [2] | adjusted significance (p) value, C-C Motif Chemokine Ligand 12 (Ccl12) [2] | adjusted significance (p) value, C-C Motif Chemokine Ligand 24 (Ccl24) [2] | adjusted significance (p) value, C-X-C Motif Chemokine Ligand 3 (Cxcl3) [2] | adjusted significance (p) value, C-X-C Motif Chemokine Ligand 5 (Cxcl5) [2] | adjusted significance (p) value, C-X-C Motif Chemokine Ligand 10 (Cxcl10) [2] | adjusted significance (p) value, Interleukin 6 (IL6) [2] | adjusted significance (p) value, Interleukin 11 (IL11) [2] | adjusted significance (p) value, Interleukin 12B (IL12b) [2] | adjusted significance (p) value, Interleukin 18 Receptor 1 (IL18r1) [2] | adjusted significance (p) value, TNF Receptor Superfamily Member 10b (Tnfrsf10b) [2] | adjusted significance (p) value, TNF Receptor Superfamily Member 11b (Tnfrsf11b) [2] | adjusted significance (p) value, TNF Superfamily Member 9 (Tnfsf9) [2] | adjusted significance (p) value, TNF Superfamily Member 18 (Tnfsf18) [2] | further results
1 | COC(=O)c1ccc2c(c1)NC(=O)/C2=C(\Nc1ccc(N(C)C(=O)CN2CCN(C)CC2)cc1)c1ccccc1 [nintedanib, Nintedanib] | approximately 50% | significant systemic adverse events |  |  |  |  |  |  |  |  |  |  |  |  |  |  |  |  |  |  | 
2 | Cn1c(=O)c(Oc2ccc(F)cc2F)cc2cnc(NC(CCO)CCO)nc21 [Pamapimod, 6-(2,4-Difluorophenoxy)-2-[3-hydroxy-1-(2-hydroxyethyl)-propylamino]-8-methyl-8H-pyrido[2,3-d]pyrimidin-7-one] |  |  | NS (NS = adjusted p value > 0.10) | NS (NS = adjusted p value > 0.10) | 0.042 | NS (NS = adjusted p value > 0.10) | NS (NS = adjusted p value > 0.10) | NS (NS = adjusted p value > 0.10) | 0.032 | NS (NS = adjusted p value > 0.10) | NS (NS = adjusted p value > 0.10) | NS (NS = adjusted p value > 0.10) | NS (NS = adjusted p value > 0.10) | NS (NS = adjusted p value > 0.10) | 0.023 | NS (NS = adjusted p value > 0.10) | NS (NS = adjusted p value > 0.10) | NS (NS = adjusted p value > 0.10) | NS (NS = adjusted p value > 0.10) | NS (NS = adjusted p value > 0.10) | adjusted significance (p) value, Interleukin 36 Gamma (IL1f9) [2]: NS (NS = adjusted p value > 0.10); adjusted significance (p) value, TNF Superfamily Member 15 (Tnfsf15) [2]: 0.0079; regulation of expression of members of the interleukin/interleukin receptor, TNF/TNF receptor, C-C and C-X-C motif chemokine families [2]: Neither pioglitazone or pamapimod single treatments significantly regulated expression; lung weights normalized to body weights [3]: Substantially lower normalized lung weights; fibrosis, group mean fibrotic index (modified Ashcroft score) [3]: Substantially less fibrosis
3 | Cc1ccc(=O)n(-c2ccccc2)c1 [pirfenidone, Pirfenidone] | approximately 50% | significant side effects |  |  |  |  |  |  |  |  |  |  |  |  |  |  |  |  |  |  | 
4 | CCc1ccc(CCOc2ccc(CC3SC(=O)NC3=O)cc2)nc1 (centres unmarked) [Pioglitazone] |  |  | NS (NS = adjusted p value > 0.10) | NS (NS = adjusted p value > 0.10) | NS (NS = adjusted p value > 0.10) | NS (NS = adjusted p value > 0.10) | NS (NS = adjusted p value > 0.10) | NS (NS = adjusted p value > 0.10) | NS (NS = adjusted p value > 0.10) | NS (NS = adjusted p value > 0.10) | NS (NS = adjusted p value > 0.10) | NS (NS = adjusted p value > 0.10) | NS (NS = adjusted p value > 0.10) | NS (NS = adjusted p value > 0.10) | NS (NS = adjusted p value > 0.10) | NS (NS = adjusted p value > 0.10) | NS (NS = adjusted p value > 0.10) | NS (NS = adjusted p value > 0.10) | NS (NS = adjusted p value > 0.10) | NS (NS = adjusted p value > 0.10) | adjusted significance (p) value, Interleukin 36 Gamma (IL1f9) [2]: NS (NS = adjusted p value > 0.10); adjusted significance (p) value, TNF Superfamily Member 15 (Tnfsf15) [2]: NS (NS = adjusted p value > 0.10); regulation of expression of members of the interleukin/interleukin receptor, TNF/TNF receptor, C-C and C-X-C motif chemokine families [2]: Neither pioglitazone or pamapimod single treatments significantly regulated expression; lung weights normalized to body weights [3]: Substantially lower normalized lung weights; fibrosis, group mean fibrotic index (modified Ashcroft score) [3]: Substantially less fibrosis
